Assays:
[1] = under these conditions; reference (34); cited from earlier work
[2] = test system: high molecular weight polyubiquitinated proteins in SKOV3 cells; test: Western blot for polyubiquitinated proteins, SKOV3 cells; type: cell-based; conditions: 12 hr, Up284 and RA475 0.5 and 1 μM, RA190 1 μM
Description: Cell lysate (10-20 μg total protein) prepared in MPER (Pierce) from each sample was subjected to SDS-PAGE, transferred to PVDF membranes and analyzed by Western blot using antibodies specific for ubiquitin (P4D1, sc-8017, Santa Cruz), or after stripping antibody for actin (#66009, Protein Tech Group), at the dilutions recommended by the manufacturers, and for secondary antibodies either peroxidase-linked anti-mouse IgG or anti-rabbit IgG (GE Healthcare UK Ltd) were utilized at the recommended dilution. The blots were developed using HyGLO chemiluminescent detection reagent (Denville).
Like RA190, RA475 was designed to be an inhibitor of upstream 19S RP proteasome function. […] Treatment with the same doses of Up284 (0.5 and 1 μM) or 1 μM RA190 provided positive controls, and vehicle alone (DMSO) was used as the negative control. At the end of the incubation, attached cells were lysed using MPER buffer according to the manufacturer's protocol. The lysates were subjected to Western blot analysis using antibody to ubiquitin, and then stripped and re-probed with actin antibody to provide a loading control (FIG. 5).
Proteasome inhibitors cause a rapid accumulation of polyUb proteins that is associated with unresolved UPR stress and the induction of apoptosis. Since RA475 is cytotoxic to ovarian cancer cells (Table 1), and induces such a rapid accumulation of polyUb proteins (FIG. 5), it was examined whether RA475 also triggered apoptosis. SKOV3 cells (FIG. 5A) were treated with Up284 (0.5 μM and 1 μM), 1 μM RA190, RA475 (0.5 μM and 1 μM) or vehicle alone (DMSO) and then cultured for 12 hr. OVCAR3 cells (FIG. 5B) were treated with Up284 (0.5 μM), Bortezomib (Bz, 0.25 μM), Ixazomib (Iz, 0.25 μM), RA475 (0.5 μM and 1 μM) or vehicle alone (DMSO). The attached cells were harvested and their lysates were subjected to Western blot analysis, first probed with antibody to ubiquitin and then to actin.

42 kDa RPN13 = target: T1, 42 kDa RPN13 (Homo sapiens, UniProt Q16186); test: RA190B competitive labeling assay in ES2 cell lysate; type: binding; conditions: ES2 cell lysate pre-incubated 45 min at 4° C. (bortezomib or Up compounds 5 μM), then RA190B 20 μM
T1 construct: endogenous in cells; host or cells: ES2 cell lysate (clarified, in MPER buffer)
T1 sequence (Q16186 whole entry): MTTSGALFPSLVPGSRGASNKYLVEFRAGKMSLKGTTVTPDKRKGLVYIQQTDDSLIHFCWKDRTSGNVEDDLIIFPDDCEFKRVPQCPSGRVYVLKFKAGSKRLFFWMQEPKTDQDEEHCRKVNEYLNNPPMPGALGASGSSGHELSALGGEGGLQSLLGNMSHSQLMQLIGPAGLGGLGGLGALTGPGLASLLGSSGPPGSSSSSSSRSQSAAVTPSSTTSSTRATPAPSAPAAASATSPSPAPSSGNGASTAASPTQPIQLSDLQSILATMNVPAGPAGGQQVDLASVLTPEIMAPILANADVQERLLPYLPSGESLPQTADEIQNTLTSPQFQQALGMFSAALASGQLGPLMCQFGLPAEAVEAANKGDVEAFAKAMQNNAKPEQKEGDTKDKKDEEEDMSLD
Description: (§1) Clarified cell lysate (40 ug/sample) in MPER buffer was pretreated with streptavidin-coated magnetic beads for 45 min at 4° C. to deplete non-specific biotinylated proteins in the cell lysate. […] Next, the samples were mixed with Laemmli sample buffer (BioRad) and boiled for 5 min. The proteins were separated using a 4-15% Bio-Rad Mini-PROTEAN SDS-PAGE gel (1 hr at 100 V), and transferred to PVDF membrane overnight at 4° C. (24 V). The membrane was blocked with 5% BSA in PBST for 1 hr at RT and washed for 20 minutes (3× with PBST). Then the membrane was probed with HRP-streptavidin (1:10,000 in PBST) for 1 hr at RT, washed for 30 min (3× with PBST), and developed using HyGLO chemiluminescent detection reagent (Denville) for biotin detection.
(§2) ES2 cell lysates were incubated with 20 μM RA190B for 45 min at 4° C., and then separated by SDS-PAGE, transferred to a PVDF membrane.

PEA1 = test: MTT cytotoxicity assay, PEA1; type: cell-based; conditions: PEA1, ovarian, 72 hr, read-out: IC50, cell killing
Description: (§3) All cell lines were obtained from the American Type Culture Collection (ATCC) and cultured in the specified medium supplemented with 10% fetal bovine serum, 100 IU/mL penicillin, and 100 μg/mL streptomycin at 37° C. in a humidified 5% CO2/95% air incubator. To assess drug cytotoxicity cells were seeded at 2,500 cells/well (10,000 cells/well for MM lines and primary cells) in 100 μL medium in 96-well plate. […]
(§4) It was examined whether the RPN13 inhibitor, RA475, was cytotoxic for cancer cell lines using the MTT assay.

PACS = test: MTT cytotoxicity assay, PACS; type: cell-based; conditions: ovarian (mouse), 72 hr, read-out: IC50, cell killing
Description: as §3, §4

PEA2 = test: MTT cytotoxicity assay, PEA2; type: cell-based; conditions: PEA2, ovarian, 72 hr, read-out: IC50, cell killing
Description: as §3, §4

[3] = target: T2, 42 kDa cellular protein previously identified as RPN13 (Homo sapiens, UniProt Q16186); test: Labeling of ES2 cell lysate with biotinylated probes; type: binding; conditions: 45 min at 4° C., streptavidin-HRP
T2 construct: endogenous in cells; host or cells: ES2 cell lysate (clarified, in MPER buffer)
T2 sequence (Q16186 whole entry): as above
Description: as §2
The lysates were then separated by SDS-PAGE, transferred to a PVDF membrane.

[4] = target: T3, 42 kDa cellular protein, consistent with RPN13 (Homo sapiens, UniProt Q16186); test: Up284B competitive labeling assay in SKOV3 or ES2 cell lysates; type: binding; conditions: pre-cleared SKOV3 or ES2 lysates, 45 min at 4° C., then 5 μM Up284B
T3 construct: endogenous in cells; host or cells: SKOV3 or ES2 cell lysates, pre-cleared with streptavidin-coated beads
T3 sequence (Q16186 whole entry): as above
Description: as §1
Briefly SKOV3 or ES2 cell lysates were first pre-cleared with streptavidin-coated beads to deplete endogenous biotinylated proteins. The pre-cleared lysates were then divided into equal aliquots. […] The lysates were then boiled in gel sample buffer, separated by SDS-PAGE, and transferred to a PVDF membrane.

N[C@@H](Cc1ccccc1)C(=O)N1C/C(=C\c2ccc(Cl)c(Cl)c2)C(=O)/C(=C/c2ccc(Cl)c(Cl)c2)C1 [RA190]
metabolism under the plasma / liver microsome conditions [1]: rapidly metabolized
accumulation of polyUb proteins [2]: profound accumulation
competition with binding of RA190B to the 42 kDa RPN13 (42 kDa RPN13): competed with the binding of RA190B to the 42 kDa protein

C=CC(=O)N1CCC2(CC1)/C(=C\c1ccc(C#N)cc1)C(=O)/C2=C/c1ccc(C#N)cc1 [Up285]
competition with binding of RA190B to the 42 kDa RPN13 (42 kDa RPN13): competed

N#Cc1ccc(/C=C2/C(=O)/C(=C/c3ccc(C#N)cc3)C23CCN(C(=N)N)C3)cc1 [RA477]
IC50 (PEA1): 0.331 µM
IC50 (PACS): 0.405 µM
IC50 (PEA2): 0.312 µM

O=C(CCCC[C@@H]1SCC2NC(=O)NC21)N[C@@H](Cc1ccccc1)C(=O)N1C/C(=C\c2ccc(Cl)c(Cl)c2)C(=O)/C(=C/c2ccc(Cl)c(Cl)c2)C1 (some centres unmarked) [RA190B]
binding of biotinylated probe to the 42 kDa cellular protein [3]: bound to the 42 kDa cellular protein

CC(C)C[C@H](NC(=O)[C@H](Cc1ccccc1)NC(=O)c1cnccn1)B(O)O [bortezomib, reference compound]
competition with binding of RA190B to the 42 kDa RPN13 (42 kDa RPN13): neither the vehicle (DMSO) nor bortezomib (negative controls) competed
competition with binding of Up284B probe to RPN13 [4]: not competed

N[C@@H](Cc1ccccc1)C(=O)N1C/C(=C\c2ccc([N+](=O)[O-])cc2)C(=O)/C(=C/c2ccc([N+](=O)[O-])cc2)C1 [RA183]
metabolism under the plasma / liver microsome conditions [1]: rapidly metabolized

Reference: patent publication US12410141B2, “Anti-cancer spirocyclic-guanidine compounds and uses thereof” (The Johns Hopkins University, priority 2020, dated 2025)
